Source: patent US12479847B2 (DANA-FARBER CANCER INSTITUTE, INC., priority 2019, dated 2025)
Where two headings read alike, the source gives them in different places.

Assays:
Experiment in all cases: KINOMEscan (ScanMAX) kinase profiling
Format in all cases: binding
panel of 468 kinases [1] = target: T1, panel of 468 kinases (Homo sapiens, UniProt Q9NSY1); settings: BIKE; 1 μM; read-out: % control
T1 construct: purchased KINOMEscan (ScanMAX) service

panel of 468 kinases [2] = target: T2, panel of 468 kinases (Homo sapiens, UniProt O75747); settings: PIK3C2G; 1 μM; read-out: % control
T2 construct: purchased KINOMEscan (ScanMAX) service
T2 sequence (O75747 1-1486): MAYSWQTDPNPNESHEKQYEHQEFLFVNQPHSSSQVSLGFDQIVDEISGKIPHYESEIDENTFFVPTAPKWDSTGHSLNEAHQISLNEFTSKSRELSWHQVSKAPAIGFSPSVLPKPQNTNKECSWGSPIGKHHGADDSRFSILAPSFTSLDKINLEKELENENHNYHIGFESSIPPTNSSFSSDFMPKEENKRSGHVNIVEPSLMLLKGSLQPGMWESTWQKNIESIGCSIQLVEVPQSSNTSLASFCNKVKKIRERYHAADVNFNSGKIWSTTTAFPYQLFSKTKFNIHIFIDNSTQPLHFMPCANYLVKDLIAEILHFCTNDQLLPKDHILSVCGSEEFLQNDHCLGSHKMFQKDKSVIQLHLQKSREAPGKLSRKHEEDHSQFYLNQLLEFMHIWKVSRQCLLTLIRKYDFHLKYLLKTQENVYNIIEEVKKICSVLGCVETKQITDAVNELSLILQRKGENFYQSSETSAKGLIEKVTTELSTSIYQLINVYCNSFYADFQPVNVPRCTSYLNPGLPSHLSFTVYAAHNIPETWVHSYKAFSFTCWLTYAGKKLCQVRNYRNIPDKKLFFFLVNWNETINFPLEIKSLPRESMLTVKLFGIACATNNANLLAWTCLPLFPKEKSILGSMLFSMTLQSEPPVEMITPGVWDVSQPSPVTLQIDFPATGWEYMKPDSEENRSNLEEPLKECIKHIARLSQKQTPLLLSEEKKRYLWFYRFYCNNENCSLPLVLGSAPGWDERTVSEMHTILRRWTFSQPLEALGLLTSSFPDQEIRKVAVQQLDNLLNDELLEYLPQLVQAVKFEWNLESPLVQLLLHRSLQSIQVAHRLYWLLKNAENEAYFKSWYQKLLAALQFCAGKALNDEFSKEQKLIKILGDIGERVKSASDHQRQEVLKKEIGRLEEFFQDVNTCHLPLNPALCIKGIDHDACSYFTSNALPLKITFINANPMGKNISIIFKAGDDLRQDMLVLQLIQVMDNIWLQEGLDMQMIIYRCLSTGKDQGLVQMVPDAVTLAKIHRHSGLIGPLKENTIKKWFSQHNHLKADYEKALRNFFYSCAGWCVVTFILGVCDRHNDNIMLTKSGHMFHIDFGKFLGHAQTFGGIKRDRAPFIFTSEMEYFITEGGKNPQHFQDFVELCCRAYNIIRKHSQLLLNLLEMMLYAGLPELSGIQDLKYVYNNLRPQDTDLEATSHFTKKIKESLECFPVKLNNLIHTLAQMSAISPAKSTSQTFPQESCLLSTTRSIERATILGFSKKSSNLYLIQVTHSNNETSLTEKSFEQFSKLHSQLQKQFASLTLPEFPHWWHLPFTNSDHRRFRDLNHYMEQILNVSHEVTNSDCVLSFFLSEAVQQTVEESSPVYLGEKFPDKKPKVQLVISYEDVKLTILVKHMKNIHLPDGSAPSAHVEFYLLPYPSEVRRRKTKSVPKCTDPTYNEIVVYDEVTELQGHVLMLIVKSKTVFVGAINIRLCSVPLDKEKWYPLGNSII

panel of 468 kinases [3] = target: T3, panel of 468 kinases (Homo sapiens, UniProt P36888); settings: 1 μM, read-out: % control
T3 construct: purchased KINOMEscan (ScanMAX) service
T3 sequence (P36888 27-993): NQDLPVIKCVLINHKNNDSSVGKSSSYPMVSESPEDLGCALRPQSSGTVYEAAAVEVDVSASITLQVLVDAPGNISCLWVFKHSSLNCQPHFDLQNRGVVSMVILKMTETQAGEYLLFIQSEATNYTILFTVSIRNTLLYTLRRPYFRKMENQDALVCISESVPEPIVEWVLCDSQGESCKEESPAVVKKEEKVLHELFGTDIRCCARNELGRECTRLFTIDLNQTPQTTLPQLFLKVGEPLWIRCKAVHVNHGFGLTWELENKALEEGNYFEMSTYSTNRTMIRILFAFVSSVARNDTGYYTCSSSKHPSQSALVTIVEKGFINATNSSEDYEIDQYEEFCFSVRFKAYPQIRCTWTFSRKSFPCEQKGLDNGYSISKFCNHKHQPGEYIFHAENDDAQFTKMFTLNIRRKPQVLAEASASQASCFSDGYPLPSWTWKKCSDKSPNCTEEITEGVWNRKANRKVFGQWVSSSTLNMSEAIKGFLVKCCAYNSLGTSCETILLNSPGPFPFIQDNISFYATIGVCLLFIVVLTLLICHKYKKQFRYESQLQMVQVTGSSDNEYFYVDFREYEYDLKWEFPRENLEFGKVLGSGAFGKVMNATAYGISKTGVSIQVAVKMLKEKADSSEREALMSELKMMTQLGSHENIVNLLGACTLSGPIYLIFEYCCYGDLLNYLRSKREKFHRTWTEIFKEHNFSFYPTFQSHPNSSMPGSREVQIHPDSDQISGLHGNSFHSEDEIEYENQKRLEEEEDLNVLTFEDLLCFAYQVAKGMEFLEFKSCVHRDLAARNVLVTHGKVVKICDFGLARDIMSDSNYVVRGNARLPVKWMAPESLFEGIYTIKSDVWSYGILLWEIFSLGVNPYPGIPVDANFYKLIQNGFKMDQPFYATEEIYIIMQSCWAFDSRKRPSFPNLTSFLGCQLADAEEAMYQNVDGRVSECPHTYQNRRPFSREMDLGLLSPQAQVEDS

T1 sequence (Q9NSY1 whole entry): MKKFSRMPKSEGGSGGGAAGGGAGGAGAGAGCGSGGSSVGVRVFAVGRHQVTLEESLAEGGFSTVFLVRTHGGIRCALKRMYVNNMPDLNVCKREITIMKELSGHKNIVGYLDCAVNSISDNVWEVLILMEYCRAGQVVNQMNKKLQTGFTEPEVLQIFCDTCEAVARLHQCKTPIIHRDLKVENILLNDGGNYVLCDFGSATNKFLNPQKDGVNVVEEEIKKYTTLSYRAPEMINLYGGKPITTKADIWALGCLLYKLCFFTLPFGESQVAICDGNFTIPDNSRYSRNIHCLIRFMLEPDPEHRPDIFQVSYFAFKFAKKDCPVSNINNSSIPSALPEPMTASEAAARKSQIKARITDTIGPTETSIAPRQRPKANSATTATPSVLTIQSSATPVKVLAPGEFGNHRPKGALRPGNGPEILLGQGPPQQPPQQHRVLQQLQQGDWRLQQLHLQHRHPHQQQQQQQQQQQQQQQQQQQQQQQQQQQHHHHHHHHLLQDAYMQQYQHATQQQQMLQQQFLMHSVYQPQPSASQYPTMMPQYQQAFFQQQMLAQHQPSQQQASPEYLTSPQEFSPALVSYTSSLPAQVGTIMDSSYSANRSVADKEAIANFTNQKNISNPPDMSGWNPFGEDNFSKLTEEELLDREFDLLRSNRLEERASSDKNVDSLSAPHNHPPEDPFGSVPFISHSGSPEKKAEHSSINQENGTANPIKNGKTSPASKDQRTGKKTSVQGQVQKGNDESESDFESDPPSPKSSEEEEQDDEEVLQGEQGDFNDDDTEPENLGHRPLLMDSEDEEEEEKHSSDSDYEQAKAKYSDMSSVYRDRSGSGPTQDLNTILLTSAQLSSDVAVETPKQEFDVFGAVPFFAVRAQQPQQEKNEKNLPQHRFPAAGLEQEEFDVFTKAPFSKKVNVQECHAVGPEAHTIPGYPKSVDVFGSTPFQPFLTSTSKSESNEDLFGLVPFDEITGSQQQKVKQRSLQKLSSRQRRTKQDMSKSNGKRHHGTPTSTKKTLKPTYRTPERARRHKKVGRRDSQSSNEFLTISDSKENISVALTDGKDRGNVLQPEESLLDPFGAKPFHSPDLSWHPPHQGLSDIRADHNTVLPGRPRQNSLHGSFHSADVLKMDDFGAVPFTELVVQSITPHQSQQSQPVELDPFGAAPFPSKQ

| Structure (SMILES) | remaining binding at 1 µM (panel of 468 kinases [1]) [%] | remaining binding at 1 µM (panel of 468 kinases [2]) [%] | remaining binding at 1 µM (panel of 468 kinases [3]; FLT3-autoinhibited) [%] | remaining binding at 1 µM (panel of 468 kinases [3]; FLT3) [%] |
| --- | --- | --- | --- | --- |
| CNc1nc(Nc2ccc(S(=O)(=O)N3CCC(N4CCOCC4)CC3)cc2OC)nc2[nH]cc(Cl)c12 [Compound 12, 5-chloro-N2-(2-methoxy-4-((4-morpholinopiperidin-1-yl)sulfonyl)phenyl)-N4-methyl-7H-pyrrolo[2,3-d]pyrimidine-2,4-diamine] | 96 | 100 | 87 | 100 |
| CNc1nc(Nc2ccc(C(=O)N3CCC(N4CCOCC4)CC3)c3c2OCO3)nc2[nH]cc(Cl)c12 [Compound 75, (7-((5-chloro-4-(methylamino)-7H-pyrrolo[2,3-d]pyrimidin-2-yl)amino)benzo[d][1,3]dioxol-4-yl)(4-morpholinopiperidin-1-yl)methanone] | 40 | 100 | 83 | 40 |
| CNc1nc(Nc2ccc(P3(=O)CCN(C4CCOCC4)CC3)cc2OC)nc2[nH]cc(Cl)c12 [Compound 77, 4-(4-((5-chloro-4-(methylamino)-7H-pyrrolo[2,3-d]pyrimidin-2-yl)amino)-3-methoxyphenyl)-1-(tetrahydro-2H-pyran-4-yl)-1,4-azaphosphinane 4-oxide] | 91 | 93 | 94 | 86 |
